Data reported in PMC11310081, “Deep-learning-enabled antibiotic discovery through molecular de-extinction” (Nature Biomedical Engineering, 2024).
≈ marks a conversion by molar mass, not a printed value. Peptide text beside a SMILES is read from it.

Experiments:
[1] = tested on: 11 clinically relevant bacterial pathogens; format: cell-based; settings: Supplementary Dataset 2; against the 11 pathogens tested
Text: (§1) The following Gram-negative bacteria were used in our study: A. baumannii ATCC 19606, E. coli ATCC 11775, E. coli AIC221 (E. coli MG1655 phnE_2::FRT), E. coli AIC222 (E. coli MG1655 pmrA53 phnE_2::FRT (colistin resistant)), K. pneumoniae ATCC 13883, P. aeruginosa PAO1 and P. aeruginosa PA14. The following Gram-positive bacteria were also used in our study: S. aureus ATCC 12600, S. aureus ATCC BAA-1556 (methicillin-resistant strain), E. faecalis ATCC 700802 (vancomycin-resistant strain) and E. faecium ATCC 700221 (vancomycin-resistant strain). Bacteria were grown from frozen stocks and plated on Luria–Bertani (LB) or Pseudomonas isolation agar plates (P. aeruginosa strains) and incubated overnight at 37 °C. After the incubation period, a single colony was transferred to 5 ml of LB medium, and cultures were incubated overnight (16 h) at 37 °C. The following day, an inoculum was prepared by diluting the overnight cultures 1:100 in 5 ml of the respective media and incubating them at 37 °C until bacteria reached logarithmic phase (OD600 = 0.3–0.5).
(§2) The in vitro antimicrobial activity of the peptides was assessed by using the broth microdilution assay. […] Aqueous solutions of the peptides were added to the plate at concentrations ranging from 1 to 64 μmol l^−1. […] The optical density of the plates was measured at 600 nm using a spectrophotometer. All assays were done as three biological replicates.

A. baumannii ATCC 19606 = format: cell-based, Acinetobacter baumannii; settings: ATCC 19606, 20 h
Text: as §1, §2

HEK293T cells = settings: 24 h
Description: HEK293T cells were obtained from the American Type Culture Collection (CRL-3216). The cells were cultured in high-glucose Dulbecco’s modified Eagle’s medium supplemented with 1% penicillin and streptomycin (antibiotics) and 10% fetal bovine serum and grown at 37 °C in a humidified atmosphere containing 5% CO2.
One day before the experiment, an aliquot of 100 μl of the cells at 50,000 cells per ml was seeded into each well of the cell-treated 96-well plates used in the experiment (that is, 5,000 cells per well). […] After the incubation period, we performed the 3-(4,5-dimethylthiazol-2-yl)-2,5-diphenyltetrazolium bromide tetrazolium reduction assay (MTT assay)[53]. The MTT reagent was dissolved at 0.5 mg ml^−1 in medium without phenol red and was used to replace cell culture supernatants containing the peptides (100 μl per well), and the samples were incubated for 4 h at 37 °C in a humidified atmosphere containing 5% CO2 yielding the insoluble formazan salt. The resulting salts were then resuspended in hydrochloric acid (0.04 mol l^−1) in anhydrous isopropanol and quantified by spectrophotometric measurements of absorbance at 570 nm. All assays were done as three biological replicates.
Unless otherwise stated, all assays were performed in three independent biological replicates as indicated in each figure legend and Methods sections. The cytotoxic activities values were estimated using non-linear regression based on the range of concentrations screened and were shown as the values that cause lysis of 50% of the cells in the experiment. Two technical replicates were performed in the cytotoxicity assays within each of the three biological replicates.

CC[C@H](C)[C@H](NC(=O)[C@H](CC(C)C)NC(=O)[C@@H](NC(=O)[C@H](CCCCN)NC(=O)[C@H](Cc1c[nH]c2ccccc12)NC(=O)[C@@H](NC(=O)[C@H](CCCCN)NC(=O)[C@H](CC(=O)O)NC(=O)[C@@H](NC(=O)[C@H](CC(C)C)NC(=O)[C@H](Cc1ccccc1)NC(=O)[C@H](C)NC(=O)CNC(=O)[C@@H](NC(=O)[C@@H](N)CCCCN)C(C)C)C(C)C)C(C)C)[C@@H](C)O)C(=O)O [Anomalopterin-2] (H-KVGAFLVDKVWKTLI-OH; N-terminus and C-terminus assumed)
Active or Inactive [1]: Active | Minimal inhibitory concentration, A. baumannii ATCC19606 (A. baumannii ATCC 19606): 32 µM (≈ 54.9 µg/mL) | CC50 (HEK293T cells): > 128 µM

CC[C@H](C)[C@H](NC(=O)[C@H](CCCCN)NC(=O)[C@H](CC(N)=O)NC(=O)[C@@H](NC(=O)[C@@H](NC(=O)[C@H](Cc1c[nH]c2ccccc12)NC(=O)[C@H](CC(C)C)NC(=O)[C@H](CCC(N)=O)NC(=O)[C@H](CC(C)C)NC(=O)[C@@H](NC(=O)[C@H](C)NC(=O)[C@H](CC(C)C)NC(=O)[C@@H](N)CCCNC(=N)N)[C@@H](C)O)[C@@H](C)O)[C@@H](C)CC)C(=O)N[C@H](C(=O)N[C@@H](CCCCN)C(=O)N[C@@H](CCC(N)=O)C(=O)N[C@@H](CC(C)C)C(=O)N[C@@H](CCSC)C(=O)N[C@H](C(=O)N1CCC[C@H]1C(=O)N[C@@H](CC(C)C)C(=O)N[C@@H](CC(N)=O)C(=O)N[C@@H](CCCCN)C(=O)N1CCC[C@H]1C(=O)NCC(=O)N[C@@H](Cc1c[nH]cn1)C(=O)N[C@@H](CCCCN)C(=O)O)[C@@H](C)CC)[C@@H](C)O [Ararin-2] (H-RLATLQLWTINKITKQLMIPLNKPGHK-OH; N-terminus and C-terminus assumed)
Active or Inactive [1]: Active | Minimal inhibitory concentration, A. baumannii ATCC19606 (A. baumannii ATCC 19606): 16 µM (≈ 50.5 µg/mL) | CC50 (HEK293T cells): > 128 µM

CC[C@H](C)[C@H](NC(=O)[C@H](CC(C)C)NC(=O)[C@H](Cc1c[nH]cn1)NC(=O)[C@@H](NC(=O)[C@H](CC(C)C)NC(=O)[C@H](CC(C)C)NC(=O)[C@H](Cc1c[nH]cn1)NC(=O)CN)[C@@H](C)CC)C(=O)NCC(=O)N[C@@H](CCCCN)C(=O)N[C@@H](C)C(=O)N[C@H](C(=O)N[C@@H](CC(C)C)C(=O)N[C@@H](C)C(=O)N[C@@H](CC(C)C)C(=O)O)[C@@H](C)O [Arctoterin-1] (H-GHLLIHLIGKATLAL-OH; N-terminus and C-terminus assumed)
Active or Inactive [1]: Active | Minimal inhibitory concentration, A. baumannii ATCC19606 (A. baumannii ATCC 19606): 64 µM (≈ 100 µg/mL) | CC50 (HEK293T cells): > 128 µM

CC[C@H](C)[C@H](NC(=O)[C@H](CCCNC(=N)N)NC(=O)[C@H](Cc1c[nH]cn1)NC(=O)[C@H](CCCCN)NC(=O)[C@@H](NC(=O)CNC(=O)[C@H](CCCNC(=N)N)NC(=O)[C@H](C)NC(=O)[C@H](CCCCN)NC(=O)[C@@H](NC(=O)[C@H](C)NC(=O)[C@@H]1CCCN1C(=O)[C@H](CC(C)C)NC(=O)[C@H](CCC(N)=O)NC(=O)[C@H](CO)NC(=O)[C@H](Cc1ccccc1)NC(=O)[C@H](CC(C)C)NC(=O)[C@H](CC(C)C)NC(=O)[C@@H](NC(=O)[C@@H](N)CS)C(C)C)C(C)C)[C@@H](C)O)C(=O)N[C@@H](CCCCN)C(=O)N[C@@H](Cc1c[nH]c2ccccc12)C(=O)N[C@@H](CC(N)=O)C(=O)N[C@@H](CCCNC(=N)N)C(=O)N[C@@H](CCCCN)C(=O)O [Equusin-4] (H-CVLLFSQLPAVKARGTKHRIKWNRK-OH; N-terminus and C-terminus assumed)
Active or Inactive [1]: Active | Minimal inhibitory concentration, A. baumannii ATCC19606 (A. baumannii ATCC 19606): 16 µM (≈ 47.2 µg/mL) | CC50 (HEK293T cells): > 128 µM | TI (therapeutic index) (HEK293T cells): > 8

CC[C@H](C)[C@H](N)C(=O)N[C@@H](Cc1ccccc1)C(=O)N[C@@H](CC(C)C)C(=O)N[C@@H](Cc1c[nH]cn1)C(=O)N[C@@H](CC(C)C)C(=O)N[C@@H](CCCCN)C(=O)N[C@H](C(=O)N[C@@H](CC(C)C)C(=O)N[C@@H](CCCCN)C(=O)N[C@H](C(=O)N[C@H](C(=O)N[C@@H](Cc1c[nH]cn1)C(=O)N[C@@H](CC(C)C)C(=O)N[C@@H](CC(C)C)C(=O)O)[C@@H](C)CC)[C@@H](C)CC)[C@@H](C)O [Mammuthusin-1] (H-IFLHLKTLKIIHLL-OH; N-terminus and C-terminus assumed)
Active or Inactive [1]: Active | Minimal inhibitory concentration, A. baumannii ATCC19606 (A. baumannii ATCC 19606): 8 µM (≈ 13.6 µg/mL) | CC50 (HEK293T cells): > 128 µM

CC[C@H](C)[C@H](NC(=O)[C@H](Cc1ccccc1)NC(=O)[C@@H](N)CC(C)C)C(=O)NCC(=O)N[C@@H](CC(C)C)C(=O)N[C@H](C(=O)N[C@@H](CC(N)=O)C(=O)N[C@@H](CC(C)C)C(=O)N[C@@H](CC(C)C)C(=O)NCC(=O)N[C@@H](CC(C)C)C(=O)N[C@@H](CC(C)C)C(=O)O)[C@@H](C)O [Mammuthusin-4] (H-LFIGLTNLLGLL-OH; N-terminus and C-terminus assumed)
Active or Inactive [1]: Active | CC50 (HEK293T cells): > 128 µM

CC[C@H](C)[C@H](NC(=O)[C@@H]1CCCN1C(=O)[C@H](CC(N)=O)NC(=O)[C@@H]1CCCN1C(=O)[C@@H]1CCCN1C(=O)[C@H](CCCCN)NC(=O)[C@@H](N)CCCCN)C(=O)N[C@@H](CCCCN)C(=O)N1CCC[C@H]1C(=O)N[C@@H](CCCCN)C(=O)N[C@H](C(=O)N1CCC[C@H]1C(=O)N[C@@H](CC(C)C)C(=O)N[C@@H](CO)C(=O)N[C@@H](C)C(=O)N1CCC[C@H]1C(=O)N[C@@H](CCCNC(=N)N)C(=O)N[C@@H](CCCCN)C(=O)N[C@@H](CO)C(=O)N1CCC[C@H]1C(=O)N[C@@H](CC(N)=O)C(=O)N[C@H](C(=O)N[C@H](C(=O)N[C@@H](CCCCN)C(=O)N[C@@H](Cc1ccc(O)cc1)C(=O)N[C@@H](CCCNC(=N)N)C(=O)N[C@@H](CC(C)C)C(=O)N[C@@H](CCCCN)C(=O)N[C@@H](Cc1ccccc1)C(=O)N[C@@H](CCCNC(=N)N)C(=O)O)C(C)C)[C@@H](C)O)C(C)C [Mammuthusin-5] (H-KKPPNPIKPKVPLSAPRKSPNTVKYRLKFR-OH; N-terminus and C-terminus assumed)
Active or Inactive [1]: Active | Minimal inhibitory concentration, A. baumannii ATCC19606 (A. baumannii ATCC 19606): 32 µM (≈ 112 µg/mL) | CC50 (HEK293T cells): > 128 µM | TI (therapeutic index) (HEK293T cells): > 4

CC[C@H](C)[C@H](NC(=O)[C@H](CC(N)=O)NC(=O)[C@H](CC(C)C)NC(=O)[C@@H](NC(=O)[C@H](Cc1ccccc1)NC(=O)[C@@H]1CCCN1C(=O)[C@@H]1CCCN1C(=O)[C@@H](NC(=O)[C@H](CO)NC(=O)[C@H](CC(C)C)NC(=O)[C@H](CCCCN)NC(=O)[C@H](CCCCN)NC(=O)[C@H](Cc1ccc(O)cc1)NC(=O)[C@@H](NC(=O)[C@@H](N)CCCCN)[C@@H](C)CC)[C@@H](C)O)[C@@H](C)O)C(=O)N[C@@H](CCCNC(=N)N)C(=O)N[C@H](C(=O)N[C@@H](CC(C)C)C(=O)N1CCC[C@H]1C(=O)N[C@@H](CCCCN)C(=O)N[C@H](C(=O)N[C@@H](CCCCN)C(=O)N[C@@H](Cc1ccccc1)C(=O)N1CCC[C@H]1C(=O)N[C@@H](CCCCN)C(=O)O)C(C)C)[C@@H](C)O [Mylodonin-3] (H-KIYKKLSTPPFTLNIRTLPKVKFPK-OH; N-terminus and C-terminus assumed)
Active or Inactive [1]: Active | Minimal inhibitory concentration, A. baumannii ATCC19606 (A. baumannii ATCC 19606): 16 µM (≈ 47.3 µg/mL) | CC50 (HEK293T cells): > 128 µM

CC[C@H](C)[C@H](N)C(=O)N[C@@H](CC(C)C)C(=O)N[C@H](C(=O)N[C@@H](CC(C)C)C(=O)N[C@@H](Cc1ccccc1)C(=O)N[C@H](C(=O)N[C@H](C(=O)N[C@@H](Cc1ccccc1)C(=O)N[C@@H](CCC(N)=O)C(=O)N[C@@H](CC(C)C)C(=O)N[C@@H](CCCCN)C(=O)N[C@H](C(=O)N[C@@H](CO)C(=O)N[C@@H](CCCCN)C(=O)N[C@@H](CC(C)C)C(=O)O)[C@@H](C)CC)[C@@H](C)CC)[C@@H](C)CC)[C@@H](C)O [Paleopropin-2] (H-ILTLFIIFQLKISKL-OH; N-terminus and C-terminus assumed)
Active or Inactive [1]: Active | CC50 (HEK293T cells): > 128 µM | TI (therapeutic index) (HEK293T cells): > 8
